From patent US10835500B2, “Medicament for accelerated wound healing” (Symrise AG, priority 2014, dated 2020)

Legend:
[1] = system: HaCaT cells; experiment: Proliferation assay (CyQuant) on HaCaT cells; type: cell-based, human
Method: It was next investigated whether Sandalore® has an effect on the growth behavior of skin cells. For this purpose, HaCaT cells were again stimulated for five days with Sandalore®, and cell count determination was carried out by means of a proliferation assay. […] In order to verify that this increase in proliferation is induced via activation of OR2AT4, HaCaT cells were transfected with siRNA or scRNA respectively, and the proliferation assay was repeated.
In addition, the cell count was determined after costimulation (1:1) by Sandalore® (500 μM) with the antagonists Oxyphenylon (500 μM) or Phenirat (500 μM). […] The effect was significant for Oxyphenylon.
Effect of Sandalore® long-term stimulation on morphology, growth, and migration processes in keratinocytes. A) Phase contrast image and PI stains of HaCaT cells and primary keratinocytes after stimulation with Sandalore® (500 μM) or 0.1% DMSO (control) for five days. On positive PI staining, the cell nuclei are stained red. Scale: 100 μm. B) Evaluation of the proliferation assay carried out with the CyQuant Cell Proliferation Kit on HaCaT cells after 5-day stimulation with 500 μM of Sandalore® or 0.1% DMSO (control). For the RNA interference experiments, the cells were transfected with siRNA or scRNA on the day before Sandalore® stimulation. Shown is the mean cell count including standard error relative to untreated cells. Mann-Whitney U test; n=3 experiments. *: p<0.05; **: p<0.01. S: Sandalore. C) Agarose assay for determination of migration of HaCaT cells. Top: Transmitted light images of HaCaT cells that have migrated in the direction of Sandalore® (500 μM) or 0.1% DMSO. The growth margin of the cells was surrounded in black. Scale: 250 μm. Bottom: Evaluation of the proliferation assay. The longest path traversed by the cells and the overgrown area were measured and compared to the control (0.1% DMSO). Paired two-sided T test. Mean values including standard error; n=4 experiments. **: p<0.01; ***: p<0.001.

[2] = molecular target: T1, recombinantly expressed OR2AT4 (Homo sapiens, UniProt A6NND4); experiment: CRE dual luciferase assay in OR2AT4-transfected Hana3A cells; type: cell-based; conditions: for activation of the recombinant receptor in the CRE luciferase assay: 4-hour incubation, OR2AT4 expressed in Hana3A cells; for concentration required to produce a significant effect at the receptor: CRE luciferase assay
T1 construct: expressed in transfected cells; host or cells: Hana3A cells, transient transfection with pcDNA3-OR2AT4 by the calcium phosphate method
T1 sequence (A6NND4 1-320): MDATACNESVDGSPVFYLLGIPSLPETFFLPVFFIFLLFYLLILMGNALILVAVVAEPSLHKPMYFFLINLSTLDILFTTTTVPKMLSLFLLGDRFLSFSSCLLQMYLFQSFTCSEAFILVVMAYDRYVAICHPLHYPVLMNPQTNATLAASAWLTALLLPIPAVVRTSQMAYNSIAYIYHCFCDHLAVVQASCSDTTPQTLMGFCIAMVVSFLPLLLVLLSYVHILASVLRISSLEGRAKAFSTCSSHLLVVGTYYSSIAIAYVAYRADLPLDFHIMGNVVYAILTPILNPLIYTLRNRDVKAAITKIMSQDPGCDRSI
From the text: In order to verify calcium imaging results and investigate dose-dependent activation of OR2AT4, a further method of deorphanization based on a dual luciferase system was used. In this method, in addition to the OR, two luciferases were introduced into the Hana3A cells. When the expressed OR is activated by an odorant and cAMP is formed in the further course of the signal cascade, this initiates expression of firefly luciferase via CRE (cAMP response elements). The second luciferase, Renilla luciferase, serves as a control for transfection and vitality of the cells. By calculating the two luciferase values, the activation capacity of an OR by an odorant can be determined. In the CRE luciferase assay, the odorant remains on the cells for hours in order to ensure that the luciferase is expressed. Because of the longer incubation time of the odorants and the possibility of activating more receptors in a 96-well format, this method is more sensitive than calcium imaging and is well-suited for establishing dose-response relationships.
For Brahmanol, however, a higher concentration (≥75 μM) was required than for Sandalore® (≥25 μM) in order to produce a significant effect at the receptor (FIG. 3c).
Determination of receptive field of recombinantly expressed OR2AT4. […] As a control, untransfected Hana3A cells were simulated with Sandalore®. 100 μM of ATP was used at the end of each measurement as a positive control stimulus. […] The mean response rate including standard error of the cells is shown relative to the Ringer control. […] Isobornyl.: isobornyl cyclohexanol; S. öl: sandalwood oil. Kruskal-Wallis test with multiple comparison. *: p<0.05. […] Significance was determined between Hana3A cells transfected with OR2AT4-pcDNA3 and pcDNA3 without an insert. The dots show mean normalized luciferase-activity including standard error. Mann-Whitney U test; n=3 experiments. *: p<0.05; **: p<0.01; ***: p<0.001.

[3] = system: primary keratinocytes; experiment: In vitro wound scratch assay, primary keratinocytes; type: cell-based, human; conditions: 500 μM, observed for two days
From the text: The MAP kinases p38 and ERK1/2 are often associated with increased proliferation and migration in epidermal wound healing. For this reason, in a further physiological experiment, the effect of Sandalore® on “wound healing” of a confluent cell layer of HaCaT cells or primary keratinocytes was investigated. For this purpose, the wound scratch assay was used, which is an established in vitro method for initial investigations of wound healing processes in keratinocytes.
Effect of Sandalore® stimulation on human keratinocytes in an in vitro “wound healing” assay. Investigation of the “wound healing rate” of A) primary keratinocytes and B) HaCaT cells by means of a wound scratch assay in the presence of Sandalore® (500 μM) or 0.1% DMSO as a control. Left: Transmitted light images of the “wound” observed at various times. The growth margin of the cells was surrounded in black. Scale: 200 μm. Right: Quantitative evaluation of the wound scratch assay. The areas of the wounds were measured and compared to the initial wound (0 h). Mean values including standard error. Mann-Whitney U test; n=4 experiments. *: p<0.05; ***: p<0.001. […] The measured wound areas of the treated cells (after 48-hour stimulation) were compared to the control (0.1% DMSO). […] The measured wound areas of the treated cells were compared to the control (0.1% DMSO). […]

Row | Structure (SMILES) | effect of antagonist alone on proliferation ([1]; antagonist alone) | proliferation after costimulation with Sandalore ([1]; costimulation 1:1, Sandalore 500 μM + antagonist 500 μM) | activation of the recombinant receptor in the CRE luciferase assay [2] | concentration required to produce a significant effect at the receptor [2] | faster closing of the scratch [3] | increase of proliferation compared to the control (0.1% DMSO) ([1]; 5-day stimulation, 500 μM)
1 | CC(=O)CCc1ccc(O)cc1 [Oxyphenylon] | no significant effect | proliferation was reduced. The effect was significant | – | – | – | –
2 | CC1=CCC(CCC(C)CO)C1(C)C (stereo not drawn) [Brahmanol®] | – | – | significant dose-dependent activation | ≥ 75 µM | 34% | –
3 | CC1=CCC(CCC(C)C(C)O)C1(C)C (stereo not drawn) [Sandalore®] | – | – | significant dose-dependent activation | ≥ 25 µM | 34% | 33%
